Measured values from PMC3923778 (PLoS Currents, 2014).

What was measured:
[1] = Microdialysis PK: SCH-51866 in striatal extracellular dialysate; assay type: in vivo, mouse; conditions: single oral dose, male R6/2, 7-8 weeks
Protocol: Microdialysis PK/PD studies were conducted at Brains Online, Inc. (San Francisco, CA, USA) Male R6/2 (CBA/C57Bl/6 strain, CAG 120) mice aged 7-8 weeks (20 - 30 g; The Jackson Laboratory, USA) were used for the experiments. The animals were group housed in plastic cages (3-4 animals / cage) and had access to food and water ad libitum. Experiments were conducted in accordance with the declarations of Helsinki and were approved by the Institutional Animal Care and Use Committee of the University of California, San-Francisco. […] Mice were anesthetized using isoflurane (2%, 800 mL/min O2). Bupivacain/epinephrine was used for local anesthesia. Carprophen was used peri-/post-operative as analgesia. The animals were placed in a stereotaxic frame (Kopf instruments, USA), and microdialysis probes were inserted into the striatum. […] After surgery animals were kept individually in cages and provided food and water ad libitum. Animals were fasted the night before the experiment. Experiments were performed one day after surgery. […] Treatment effects were evaluated among different drug concentrations and also compared to baseline, using two-way ANOVA for repeated measurements followed by Student-Newman-Keuls post-hoc test. […] Pharmacodynamic parameters were calculated using Phoenix™ WinNonlin® Pro Node initial (Pharsight Corporation, Mountain View, CA, USA).

R6/2 mice = assay: Rotarod; assay type: in vivo, mouse; conditions: BID, ANOVA
Protocol: Motor function testing including open field and rear climbing tests were commenced at 4 weeks of age and continued at weeks 6, 8 and 12, for grip strength test at age weeks 4 and 12 and for rotarod at age weeks 4, 6 and 8. Compound treatment was started at 4 weeks of age after the baseline behavioral tests.
Mice were tested at age weeks 4, 6 and 8 over 3 consecutive days (Wed, Thu, Fri). Each daily session included a training trial of 5 min at 4 RPM on the rotarod apparatus (AccuScan Instruments, Columbus, USA). One hour later, the animals were tested for 3 consecutive accelerating trials of 6 min with the speed changing from 0 to 40 RPM over 360 seconds and an inter-trial interval at least 30 min. The latency to fall from the rod was recorded. Mice remaining on the rod for more than 360 s were removed and their time scored as 360 sec.
All values are presented as mean ± Standard Error of Mean (SEM), and differences are considered to be statistically significant at the p < 0.05 level. Statistical analysis was performed using StatsDirect statistical software. Differences between group means were analyzed by 1-way-ANOVA followed by Dunnett’s test (comparison to the control (=vehicle treated TG mice) group). The acquisition of the Cued two-choice swim test was analyzed using Fisher’s exact test.

For CN1C(=O)c2nc(Cc3ccc(C(F)(F)F)cc3)[nH]c2N2C1=N[C@H]1CCC[C@H]12 [SCH-51866, (+)-cis-5,6a,7,8,9,9a-hexahydro-2-[4-[trifluro-methyl]phenylmethyl]-5-methyl-cylopent[4,5]imidazo [2,1-b]purin-4(3H)one], the “SCH-51866 in brain extracellular fluid” value [1] was “dose-dependent accumulation”, the “Rotarod: p vs Vehicle-treated R6/2 mice” value (R6/2 mice; Age Week 4, 10 mg/kg p.o.) was “ANOVA: p=0.458” and the “Rotarod: p vs Vehicle-treated R6/2 mice” value (R6/2 mice; Age Week 4, 30 mg/kg p.o.) was “ANOVA: p=0.458”. For the same compound, the “Rotarod: p vs Vehicle-treated R6/2 mice” value (R6/2 mice; Age Week 6, 10 mg/kg p.o.) was “ANOVA: p=0.262”, the “Rotarod: p vs Vehicle-treated R6/2 mice” value (R6/2 mice; Age Week 6, 30 mg/kg p.o.) was “ANOVA: p=0.262” and the “Rotarod: p vs Vehicle-treated R6/2 mice” value (R6/2 mice; Age Week 8, 10 mg/kg p.o.) was “ANOVA: p=0.171”. The “Rotarod: p vs Vehicle-treated R6/2 mice” value (R6/2 mice; Age Week 8, 30 mg/kg p.o.) was “ANOVA: p=0.171”.
